{"source": "patent US20050197350A1", "about": "“Novel quinoline, tetrahydroquinazoline, and pyrimidine derivatives and methods of treatment related to the use thereof” (TAISHO PHARMACEUTICAL CO., LTD., priority 2003, published 2005)", "data": [{"test_system": "MCH receptors", "test": "MCH receptor activity class (method not given)", "settings": "not given", "values": [{"molecule": "Cc1cc(N(C)C)nc(N[C@H]2CC[C@@H](C(=O)NCc3ccc(Cl)cc3)CC2)n1", "note": "[Example 2580, cis-N-(4-chlorobenzyl)-4-{[4-(dimethylamino)-6-methylpyrimidin-2-yl]amino}cyclohexanecarboxamide]", "class": 1}]}, {"test_system": "MCH receptors", "test": "MCH receptor activity class (method not given)", "settings": "MCH receptor activity class 1-3 (percent of control at 10^-7 M or IC50)", "values": [{"molecule": "CN(C)c1ccnc(N[C@H]2CC[C@@H](CNC(=O)Nc3ccc(F)c(Cl)c3)CC2)n1", "note": "[compound 2450, N-(3-chloro-4-fluorophenyl)-N′-[(cis-4-{[4-(dimethylamino)pyrimidin-2-yl]amino}cyclohexyl)methyl]urea]", "class": "1 (Class 1: The value of percent of control at 10^−7 M was less than 40% or the value of IC50 was less than 50 nM.)"}]}, {"test_system": "MCH receptors", "test": "MCH receptor activity class (method not given)", "settings": "MCH receptor; class by percent of control at 10^-7 M or IC50", "values": [{"molecule": "COc1ccc(OC)c(CC(=O)NC[C@H]2CC[C@@H](Nc3cc(N(C)C)c4ccccc4n3)CC2)c1", "note": "[compound 162]", "class": "3 (Class 3 The value of percent of control at 10^−7 M was more than 60% or the value of IC50 was more than 200 nM.)"}, {"molecule": "COc1cccc(C(=O)N[C@H]2CC[C@@H](Nc3cc(N(C)C)c4ccccc4n3)CC2)c1", "note": "[compound 20, N-(cis-4-{[4-(dimethylamino)quinolin-2-yl]amino}cyclohexyl)-3-methoxybenzamide]", "class": "2 (Class 2: The value of percent of control at 10^−7 M was from 40% to 60% or the value of IC′50 was from 50 nM to 200 nM.)"}, {"molecule": "CCN(CC)c1ccc(NC(=S)N[C@H]2CC[C@@H](Nc3nc4c(c(N(C)C)n3)CCCC4)CC2)cc1", "note": "[compound 2012]", "class": "3 (Class 3 The value of percent of control at 10^−7 M was more than 60% or the value of IC50 was more than 200 nM.)"}, {"molecule": "CN(C)c1nc(N[C@H]2CC[C@@H](NC(=S)Nc3ccc(Cl)c(Cl)c3)CC2)nc2c1CCCC2", "note": "[compound 1937]", "class": "3 (Class 3 The value of percent of control at 10^−7 M was more than 60% or the value of IC50 was more than 200 nM.)"}, {"molecule": "CN(C)c1cc(N[C@H]2CC[C@@H](NC(=O)Cc3ccccc3)CC2)nc2ccccc12", "note": "[compound 45, N-(cis-4-{[4-(dimethylamino)quinolin-2-yl]amino}cyclohexyl)-2-phenlacetamide]", "class": "3 (Class 3 The value of percent of control at 10^−7 M was more than 60% or the value of IC50 was more than 200 nM.)"}]}, {"test_system": "MCH receptors", "test": "MCH receptor activity class (method not given)", "settings": "activity class 1-3: percent of control at 10^-7 M or IC50", "values": [{"molecule": "CN(C)c1nc(N[C@H]2CC[C@@H](CNC(=O)Oc3ccc(Br)cc3)CC2)nc2c1CCCC2", "note": "[compound 1603]", "class": "3 (Class 3 The value of percent of control at 10^−7 M was more than 60% or the value of IC50 was more than 200 nM.)"}, {"molecule": "COC(=O)N[C@H]1CC[C@@H](Nc2cc(N(C)C)c3ccccc3n2)CC1", "note": "[compound 1555]", "class": "3 (Class 3 The value of percent of control at 10^−7 M was more than 60% or the value of IC50 was more than 200 nM.)"}, {"molecule": "C=CCOC(=O)NC[C@H]1CC[C@@H](Nc2cc(N(C)C)c3ccccc3n2)CC1", "note": "[compound 1570]", "class": "3 (Class 3 The value of percent of control at 10^−7 M was more than 60% or the value of IC50 was more than 200 nM.)"}, {"molecule": "Cc1c(Cl)cccc1NC(=O)N[C@H]1CC[C@@H](Nc2nc3c(c(N(C)C)n2)CCCC3)CC1", "note": "[compound 1685]", "class": "3 (Class 3 The value of percent of control at 10^−7 M was more than 60% or the value of IC50 was more than 200 nM.)"}]}, {"test_system": "MCH receptors", "test": "MCH receptor activity class (method not given)", "settings": "activity class per percent of control at 10^-7 M or IC50", "values": [{"molecule": "COc1ccc(OC)c(CNC[C@H]2CC[C@@H](Nc3cc(N(C)C)c4ccccc4n3)CC2)c1", "note": "[compound 1125]", "class": "3 (Class 3 The value of percent of control at 10^−7 M was more than 60% or the value of IC50 was more than 200 nM.)"}]}, {"test_system": "MCH receptors", "test": "MCH receptor activity class (method not given)", "settings": "class 1-3 by percent of control at 10^-7 M or IC50", "values": [{"molecule": "CN(C)c1ccnc(N[C@H]2CC[C@@H](CNC(=O)c3cccc4c3-c3ccccc3C4=O)CC2)n1", "note": "[compound 444, N-[(cis-4-{[4-(dimethylamino)pyrimidin-2-yl]amino}cyclohexyl)methyl]-9-oxo-9H-fluorene-4-carboxamide]", "class": "2 (Class 2: The value of percent of control at 10^−7 M was from 40% to 60% or the value of IC′50 was from 50 nM to 200 nM.)"}, {"molecule": "CN(C)c1nc(N[C@H]2CC[C@@H](NC(=O)C3CCCCC3)CC2)nc2c1CCCC2", "note": "[compound 533]", "class": "3 (Class 3 The value of percent of control at 10^−7 M was more than 60% or the value of IC50 was more than 200 nM.)"}, {"molecule": "Cc1onc(-c2c(Cl)cccc2Cl)c1C(=O)N[C@H]1CC[C@@H](Nc2nc3c(c(N(C)C)n2)CCCC3)CC1", "note": "[compound 570]", "class": "1 (Class 1: The value of percent of control at 10^−7 M was less than 40% or the value of IC50 was less than 50 nM.)"}]}, {"test_system": "MCH receptors", "test": "MCH receptor activity class (method not given)", "settings": "class by percent of control at 10^-7 M or IC50", "values": [{"molecule": "COC(CNC1CCC(Nc2nc3c(c(N(C)C)n2)CCCC3)CC1)c1ccccc1", "note": "(centres unmarked) [compound 1484]", "class": "3 (Class 3 The value of percent of control at 10^−7 M was more than 60% or the value of IC50 was more than 200 nM.)"}, {"molecule": "CN(C)c1ccnc(N[C@H]2CC[C@@H](CNC(=O)c3cc(Cl)cc(Cl)c3)CC2)n1", "note": "[compound 375]", "class": "2 (Class 2: The value of percent of control at 10^−7 M was from 40% to 60% or the value of IC′50 was from 50 nM to 200 nM.)"}, {"molecule": "CN(C)c1ccnc(N[C@H]2CC[C@@H](NC(=O)Cc3sc(-c4ccccc4)nc3-c3ccc(Cl)cc3)CC2)n1", "note": "[compound 900, 2-[4-(4-chlorophenyl)-2-phenyl-1,3-thiazol-5-yl]-N-(cis-4-{[4-(dimethylamino)pyrimidin-2-yl]amino}cyclohexyl)acetamide]", "class": "1 (Class 1: The value of percent of control at 10^−7 M was less than 40% or the value of IC50 was less than 50 nM.)"}, {"molecule": "CN(C)c1ccnc(N[C@H]2CC[C@@H](NC(=O)c3csc4ccccc34)CC2)n1", "note": "[compound 309]", "class": "3 (Class 3 The value of percent of control at 10^−7 M was more than 60% or the value of IC50 was more than 200 nM.)"}, {"molecule": "CN(C)c1ccnc(N[C@H]2CC[C@@H](NC(=O)c3ccccc3)CC2)n1", "note": "[compound 311, N-(cis-4-{[4-(dimethylamino)pyrimidin-2-yl]amino}cyclohexyl)benzamide]", "class": "3 (Class 3 The value of percent of control at 10^−7 M was more than 60% or the value of IC50 was more than 200 nM.)"}, {"molecule": "CN(C)c1cc(N[C@H]2CC[C@@H](CNC(=O)CC3=CCCCC3)CC2)nc2ccccc12", "note": "[compound 806]", "class": "3 (Class 3 The value of percent of control at 10^−7 M was more than 60% or the value of IC50 was more than 200 nM.)"}, {"molecule": "CC(CN[C@H]1CC[C@@H](Nc2nccc(N(C)C)n2)CC1)c1ccccc1", "note": "(relative stereo) [compound 1231]", "class": "3 (Class 3 The value of percent of control at 10^−7 M was more than 60% or the value of IC50 was more than 200 nM.)"}, {"molecule": "CCCN(CCC)C(=O)[C@H](CCC(=O)N[C@H]1CC[C@@H](Nc2cc(N(C)C)c3ccccc3n2)CC1)NC(=O)c1ccccc1", "note": "(relative stereo) [compound 730]", "class": "3 (Class 3 The value of percent of control at 10^−7 M was more than 60% or the value of IC50 was more than 200 nM.)"}, {"molecule": "CN(C)c1ccnc(N[C@H]2CC[C@@H](NC(=O)c3cc(C(F)(F)F)cc(C(F)(F)F)c3)CC2)n1", "note": "[compound 296, N-(cis-4-{[4-(dimethylamino)pyrimidin-2-yl]amino}cyclohexyl)-3,5-bis(trifluoromethyl)benzamide]", "class": "1 (Class 1: The value of percent of control at 10^−7 M was less than 40% or the value of IC50 was less than 50 nM.)"}, {"molecule": "Cc1cc(C)c(CNC[C@H]2CC[C@@H](Nc3nc4c(c(N(C)C)n3)CCCC4)CC2)c(C)c1", "note": "[compound 1423]", "class": "3 (Class 3 The value of percent of control at 10^−7 M was more than 60% or the value of IC50 was more than 200 nM.)"}, {"molecule": "CN(C)c1ccnc(N[C@H]2CC[C@@H](CNC(=O)Cc3ccccc3)CC2)n1", "note": "[compound 390]", "class": "3 (Class 3 The value of percent of control at 10^−7 M was more than 60% or the value of IC50 was more than 200 nM.)"}, {"molecule": "COC(=O)c1ccccc1Sc1nc2sccn2c1CN[C@H]1CC[C@@H](Nc2nccc(N(C)C)n2)CC1", "note": "[compound 1237]", "class": "3 (Class 3 The value of percent of control at 10^−7 M was more than 60% or the value of IC50 was more than 200 nM.)"}, {"molecule": "CN(C)c1ccnc(N[C@H]2CC[C@@H](NC(=O)C(CC(=O)c3ccccc3)c3c[nH]c4ccccc34)CC2)n1", "note": "(relative stereo) [compound 855, N-(cis-4-{[4-(dimethylamino)pyrimidin-2-yl]amino}cyclohexyl)-2-(1H-indol-3-yl)-4-oxo-4-phenylbutanamide]", "class": "1 (Class 1: The value of percent of control at 10^−7 M was less than 40% or the value of IC50 was less than 50 nM.)"}, {"molecule": "CN(C)c1ccnc(N[C@H]2CC[C@@H](CNCc3cccc(Cl)c3)CC2)n1", "note": "[compound 1269]", "class": "3 (Class 3 The value of percent of control at 10^−7 M was more than 60% or the value of IC50 was more than 200 nM.)"}, {"molecule": "Cc1cc(Cl)ccc1NC(=O)N[C@H]1CC[C@@H](Nc2nc3c(c(N(C)C)n2)CCCC3)CC1", "note": "[compound 1724, N-(4-chloro-2-methylphenyl)-N′-(cis-4-{[4-(dimethylamino)-5,6,7,8-tetrahydroquinazolin-2-yl]amino}cyclohexyl)urea]", "class": "2 (Class 2: The value of percent of control at 10^−7 M was from 40% to 60% or the value of IC′50 was from 50 nM to 200 nM.)"}, {"molecule": "CN(C)c1nc(N[C@H]2CC[C@@H](CNCC=C(c3ccccc3)c3ccccc3)CC2)nc2c1CCCC2", "note": "[compound 1400]", "class": "1 (Class 1: The value of percent of control at 10^−7 M was less than 40% or the value of IC50 was less than 50 nM.)"}, {"molecule": "COc1cccc(C(=O)NC[C@H]2CC[C@@H](Nc3nccc(N(C)C)n3)CC2)c1", "note": "[compound 365]", "class": "3 (Class 3 The value of percent of control at 10^−7 M was more than 60% or the value of IC50 was more than 200 nM.)"}, {"molecule": "Cc1noc(-c2ccccc2)c1NC(=O)N[C@H]1CC[C@@H](Nc2cc(N(C)C)c3ccccc3n2)CC1", "note": "[compound 2121, N-(cis-4-{[4-(dimethylamino)quinolin-2-yl]amino}cyclohexyl)-N′-(3-methyl-5-phenylisoxazol-4-yl)urea]", "class": "2 (Class 2: The value of percent of control at 10^−7 M was from 40% to 60% or the value of IC′50 was from 50 nM to 200 nM.)"}, {"molecule": "COc1ccc(OC)c(CN[C@H]2CC[C@@H](Nc3nccc(N(C)C)n3)CC2)c1", "note": "[compound 1208]", "class": "3 (Class 3 The value of percent of control at 10^−7 M was more than 60% or the value of IC50 was more than 200 nM.)"}]}, {"test_system": "MCH receptors", "test": "MCH receptor activity class (method not given)", "settings": "class by percent of control at 10^−7 M or IC50", "values": [{"molecule": "Cc1cc(N(C)C)nc(N[C@H]2CC[C@@H](NC(=O)c3cccc(C(F)(F)F)c3)CC2)n1", "note": "[compound 2954, N-(cis-4-{[4-(dimethylamino)-6-methylpyrimidin-2-yl]amino}cyclohexyl)-3-(trifluoromethyl)benzamide]", "class": "1 (Class 1: The value of percent of control at 10^−7 M was less than 40% or the value of IC50 was less than 50 nM.)"}]}]}
